Our source for the pest or weed control values is patent US20100331348A1, “TROPANE DERIVATIVES USEFUL AS PESTICIDES” (SYNGENTA CROP PROTECTION, INC., priority 2007, published 2010).

Structures are written as SMILES. Where two headings read alike, the source gives them in different places.

In one experiment the test system is Pyricularia oryzae. The experiment in a line: whole plant or invertebrate. The format is in vivo. The settings on record: foliar, 96 h.
For the next experiment, the system named is Aedes aegypti. Nature of the experiment: Aedes aegypti (Yellow fever mosquito) larvae test. Type of experiment: in vivo. The following applies: 48 h.
The test system of experiment [1] is Erysiphe graminis f.sp. tritici. The experiment in a line: Erysiphe graminis f.sp. tritici (wheat powdery mildew) leaf disk assay. Type of experiment: in vivo. The following applies: Blumeria graminis, foliar, 96 h, preventive, four days after inoculation, read-out: control of fungal infection, Erysiphe graminis fsp. tritici.
The next experiment has as its system Plutella xylostella. Nature of the experiment: Plutella xylostella (Diamond back moth) artificial diet test. The following applies: 120 h, read-out: control of Plutella xylostella.
In experiment [2] the test system is Puccinia recondita f.sp. tritici. Nature of the experiment: Puccinia recondita f.sp. tritici (wheat brown rust) leaf disk assay. The format is in vivo. The following applies: foliar, 216 h, preventive, nine days after inoculation, read-out: control of fungal infection, Puccinia recondita f.sp. tritici.
Another experiment relates to Phytophthora infestans. Nature of the experiment: whole plant or invertebrate. Type of experiment: in vivo. The settings on record: foliar, 96 h, read-out: control of fungal infection, Phytophthora infestans.
Where [3] appears, read: read-out: control of fungal infection, Pyricularia oryzae (at least 80% list).
[4] abbreviates: read-out: control of fungal infection, Pyricularia oryzae (at least 60% list).

For `CCc1ncnc(N2C3CCC2CC(=NOCc2ccc(OC)c(Cl)c2Cl)C3)c1Cl` [Example 5.88], the pest or weed control at 200 ppm (in the experiment with Pyricularia oryzae (setting [3]); in experiment [1]; in the experiment with Plutella xylostella; in experiment [2]) was at least 80% each time. The molecule further returned a pest or weed control at 2 ppm with Aedes aegypti of at least 80%.
As for `Fc1cccc(CON=C2CC3CCC(C2)N3c2ncnc3sccc23)c1` [Example 5.183], in the experiment with Aedes aegypti, the pest or weed control at 2 ppm was at least 80%. Besides, the pest or weed control at 200 ppm in experiment [1] and in experiment [2] was at least 80% throughout.
On to `CCc1ncnc(N2C3CCC2CC(=NOCc2ccccc2C#N)C3)c1Cl` [Example 5.38], for which the pest or weed control at 200 ppm in the experiment on Pyricularia oryzae (setting [4]) is at least 60%; in experiment [1], at least 80%; in experiment [2] it was at least 80%. Moreover, the pest or weed control at 2 ppm in the experiment with Aedes aegypti is at least 80%.
In the case of `CCc1ncnc(N2C3CCC2CC(=NOCc2cccc(Cl)c2F)C3)c1Cl` [Example 5.79], the pest or weed control at 200 ppm (in experiment [1]; in the experiment on Plutella xylostella; in experiment [2]) was at least 80% each time.
For `CCc1ncnc(N2C3CCC2CC(=NOCc2ccc(C)c(C)c2)C3)c1Cl` [Example 5.27], the pest or weed control at 200 ppm (in experiment [1]; in the experiment with Plutella xylostella; in experiment [2]) was at least 80% throughout.
With `CCc1ncnc(N2C3CCC2CC(=CC(=O)N(C)C)C3)c1Cl` [Example 3.3], the pest or weed control at 200 ppm with Phytophthora infestans was at least 80%.
For `CCc1ncnc(N2C3CCC2CC(=NOCc2c(Cl)cccc2Cl)C3)c1Cl` [Example 5.34], the pest or weed control at 200 ppm (in experiment [1]; in the experiment with Plutella xylostella) was at least 80% throughout.
Consider `CCc1ncnc(N2C3CCC2CC(=NOCc2c(C)cc(C)cc2C)C3)c1Cl` [Example 5.33], for which the pest or weed control at 200 ppm (in experiment [1]; in the experiment with Plutella xylostella) was at least 80% each time.
In the case of `C#CCOc1ccc(C(C)(C)c2ccc(OC3C[C@H]4CC[C@@H](C3)N4c3ncnc4sccc34)cc2)cc1` (stereo partly drawn) [Example 2.225], the pest or weed control at 200 ppm in the experiment on Plutella xylostella was at least 80%.
On to `CN(C)C(=O)C=C1CC2CCC(C1)N2c1ncnc2sccc12` [Example 3.25], for which the pest or weed control at 200 ppm with Phytophthora infestans is at least 80%.
`CCc1ncnc(N2C3CCC2CC(=NOCc2ccccc2OC(F)F)C3)c1Cl` [Example 5.68] had a pest or weed control at 2 ppm with Aedes aegypti of at least 80%. Further, the pest or weed control at 200 ppm (in experiment [1]; in the experiment on Plutella xylostella; in experiment [2]) was at least 80% throughout.
Take `CCc1ncnc(N2C3CCC2CC(=NOCc2cccc(C#N)c2)C3)c1Cl` [Example 5.44]: the pest or weed control at 2 ppm in the experiment with Aedes aegypti is at least 80%. The pest or weed control at 200 ppm (in experiment [1]; in the experiment with Plutella xylostella; in experiment [2]) was at least 80% each time.
On to `CCc1ncnc(N2C3CCC2CC(=NOCc2ccccc2Br)C3)c1Cl` [Example 5.31], for which the pest or weed control at 200 ppm (in experiment [1]; in the experiment with Plutella xylostella; in experiment [2]) was at least 80% in each case.
Turning to `CC(C)c1ccc(OC2C[C@H]3CC[C@@H](C2)N3c2ncnc3sccc23)cc1` (stereo partly drawn) [Example 2.17], the pest or weed control at 200 ppm (in experiment [1]; in the experiment on Plutella xylostella) was at least 80% each time.
In the experiment with Aedes aegypti, `CCc1ncnc(N2C3CCC2CC(=NOCc2ccccc2Cl)C3)c1Cl` [Example 5.28] showed a pest or weed control at 2 ppm of at least 80%. Besides, the pest or weed control at 200 ppm (in experiment [1]; with Plutella xylostella; in experiment [2]) was at least 80% each time.
As for `FC(F)(F)c1ccccc1CON=C1CC2CCC(C1)N2c1ncnc2sccc12` [Example 5.188], the pest or weed control at 200 ppm in the experiment on Pyricularia oryzae (setting [4]) is at least 60%; in experiment [1] it was at least 80%; in the experiment with Plutella xylostella, at least 80%; in experiment [2], at least 80%. Further, in the experiment on Aedes aegypti, the pest or weed control at 2 ppm is at least 80%.
Regarding `Clc1cccc(Cl)c1CON=C1CC2CCC(C1)N2c1ncnc2sccc12` [Example 5.144], the pest or weed control at 200 ppm (with Pyricularia oryzae (setting [3]); in experiment [1]; in experiment [2]) was at least 80% in each case. In addition, the pest or weed control at 2 ppm in the experiment on Aedes aegypti was at least 80%.
The molecule `CCc1ncnc(N2C3CCC2CC(=NOCc2c(F)cccc2Cl)C3)c1Cl` [Example 5.90] had a pest or weed control at 2 ppm in the experiment on Aedes aegypti of at least 80%. The pest or weed control at 200 ppm in experiment [1] and in experiment [2] was at least 80% in each case.
In the case of `CCc1ncnc(N2C3CCC2CC(=NOCc2ccc(C)cc2C)C3)c1Cl` [Example 5.36], the pest or weed control at 2 ppm with Aedes aegypti is at least 80%. Moreover, the pest or weed control at 200 ppm (in experiment [1]; in the experiment with Plutella xylostella; in experiment [2]) was at least 80% in each case.
On to `CCc1ncnc(N2[C@@H]3CC[C@H]2CC(Oc2cccc(F)c2F)C3)c1Cl` (stereo partly drawn) [Example 1.164], for which, in the experiment on Aedes aegypti, the pest or weed control at 2 ppm was at least 80%. Moreover, the pest or weed control at 200 ppm (in experiment [1]; in the experiment on Plutella xylostella; in experiment [2]) was at least 80% each time.
Regarding `FC(F)Oc1cccc(CON=C2CC3CCC(C2)N3c2ncnc3sccc23)c1` [Example 5.204], the pest or weed control at 200 ppm in the experiment on Pyricularia oryzae (setting [4]) is at least 60%; in experiment [1], at least 80%; with Plutella xylostella, at least 80%; in experiment [2], at least 80%. Further, the pest or weed control at 2 ppm with Aedes aegypti is at least 80%.
For the molecule `CCc1ncnc(N2[C@@H]3CC[C@H]2CC(Oc2ccc(C(C)(C)C)cc2)C3)c1Cl` (stereo partly drawn) [Example 2.147], the pest or weed control at 200 ppm in the experiment with Plutella xylostella was at least 80%.
Consider `COC(=O)C=C1CC2CCC(C1)N2c1ncnc2sccc12` [Example 3.28], for which the pest or weed control at 200 ppm (with Pyricularia oryzae (setting [3]); in experiment [2]) was at least 80% each time. Further, the pest or weed control at 2 ppm in the experiment with Aedes aegypti was at least 80%.
`Fc1cccc(Cl)c1CON=C1CC2CCC(C1)N2c1ncnc2sccc12` [Example 5.213]: the pest or weed control at 2 ppm in the experiment on Aedes aegypti was at least 80%. The pest or weed control at 200 ppm (in experiment [1]; in the experiment on Plutella xylostella; in experiment [2]) was at least 80% each time.
As for `CCc1ncnc(N2C3CCC2CC(=NOCc2ccc4ccccc4c2)C3)c1Cl` [Example 5.8], the pest or weed control at 200 ppm (in experiment [1]; in the experiment on Plutella xylostella; in experiment [2]) was at least 80% each time.
The molecule `CCc1ncnc(N2C3CCC2CC(=NOCc2ccccc2C(F)(F)F)C3)c1Cl` [Example 5.70] registered a pest or weed control at 2 ppm in the experiment with Aedes aegypti of at least 80%. Also, the pest or weed control at 200 ppm (in experiment [1]; with Plutella xylostella; in experiment [2]) was at least 80% in each case.
With `CCc1ncnc(N2C3CCC2CC(=NOCc2cccc(C)c2)C3)c1Cl` [Example 5.12], the pest or weed control at 2 ppm with Aedes aegypti is at least 80%. For the same molecule, the pest or weed control at 200 ppm (in experiment [1]; in the experiment on Plutella xylostella; in experiment [2]) was at least 80% throughout.
On to `COc1cccc(CON=C2CC3CCC(C2)N3c2ncnc3sccc23)c1` [Example 5.164], for which, in the experiment with Aedes aegypti, the pest or weed control at 2 ppm was at least 80%. Besides, the pest or weed control at 200 ppm (in experiment [1]; in the experiment with Plutella xylostella; in experiment [2]) was at least 80% each time.
As for `CCc1ncnc(N2C3CCC2CC(=NOCc2c(F)cccc2F)C3)c1Cl` [Example 5.61], the pest or weed control at 200 ppm in the experiment with Pyricularia oryzae (setting [4]) was at least 60%; in experiment [1], at least 80%; with Plutella xylostella it was at least 80%; in experiment [2] it was at least 80%. In addition, in the experiment with Aedes aegypti, the pest or weed control at 2 ppm was at least 80%.
Turning to `CCc1ncnc(N2C3CCC2CC(=NOCc2ccc(Cl)cc2Cl)C3)c1Cl` [Example 5.50], the pest or weed control at 200 ppm in the experiment with Plutella xylostella is at least 80%.
Consider `CCc1ncnc(N2C3CCC2CC(=NOCc2cccc(C)c2F)C3)c1Cl` [Example 5.74], for which the pest or weed control at 200 ppm (in experiment [1]; in the experiment on Plutella xylostella; in experiment [2]) was at least 80% in each case.
In the case of `Fc1cccc(OC2C[C@H]3CC[C@@H](C2)N3c2ncnc3sccc23)c1F` (stereo partly drawn) [Example 1.24], the values for the pest or weed control at 200 ppm (in the experiment with Pyricularia oryzae (setting [4]); with Plutella xylostella; in experiment [2]) were at least 60%, at least 80% and at least 80%, respectively. In the experiment with Aedes aegypti, this molecule returned a pest or weed control at 2 ppm of at least 80%.
`CCc1ncnc(N2[C@@H]3CC[C@H]2CC(Oc2ccc(C(C)C)cc2)C3)c1Cl` (stereo partly drawn) [Example 2.143]: the pest or weed control at 200 ppm with Plutella xylostella was at least 80%.
For the molecule `FC(F)Oc1ccccc1CON=C1CC2CCC(C1)N2c1ncnc2sccc12` [Example 5.202], the pest or weed control at 200 ppm was at least 60% in the experiment on Pyricularia oryzae (setting [4]), at least 80% in experiment [1] and at least 80% in experiment [2]. This molecule also registered a pest or weed control at 2 ppm with Aedes aegypti of at least 80%.
As to `Cc1cccc(CON=C2CC3CCC(C2)N3c2ncnc3sccc23)c1F` [Example 5.223], the pest or weed control at 2 ppm in the experiment with Aedes aegypti was at least 80%. Further, the pest or weed control at 200 ppm (in experiment [1]; in the experiment on Plutella xylostella; in experiment [2]) was at least 80% each time.
`CCc1ncnc(N2C3CCC2CC(=NOCc2cccc(OC)c2)C3)c1Cl` [Example 5.15] displayed a pest or weed control at 2 ppm in the experiment on Aedes aegypti of at least 80%. The pest or weed control at 200 ppm in experiment [1] and in experiment [2] was at least 80% each time.
As for `FC(F)(F)c1cccc(CON=C2CC3CCC(C2)N3c2ncnc3sccc23)c1` [Example 5.187], the pest or weed control at 200 ppm was at least 60% in the experiment on Pyricularia oryzae (setting [4]), at least 80% in experiment [1], at least 80% with Plutella xylostella and at least 80% in experiment [2]. This molecule also displayed a pest or weed control at 2 ppm in the experiment with Aedes aegypti of at least 80%.
As for `CCc1ncnc(N2C3CCC2CC(=NOCc2ccc(-c4nnn(CC)n4)cc2)C3)c1Cl` [Example 5.112], the pest or weed control at 2 ppm in the experiment with Aedes aegypti is at least 80%. For the same molecule, the pest or weed control at 200 ppm in experiment [1] and in experiment [2] was at least 80% each time.
